The values that follow come from patent US20240254119A1 (THIRD HARMONIC BIO, INC., priority 2022, published 2024).

Some results are limits rather than exact numbers.

The test system of data set [1] is KIT phosphorylation in M-07e cells. Description: Cell-based KIT phosphorylation in M-07e cells by pKIT ELISA. The arrangement: species or system human. Conditions: SCF stimulation. Summed up: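 Serum-starved M-07e cells (1 × 10^6/mL, overnight) were treated with compounds (8-point 3-fold series from 1 uM) for 2 h at 37 °C, then stimulated with 100 ng/mL SCF for 5 min. Lysate phospho-KIT was captured on anti-phospho-CD117 plates, detected with anti-pY-HRP, and read at 450 nm against a pc-KIT standard curve.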
Background: ELISA stands for enzyme-linked immunosorbent assay.

The subject of a further data set is CYP3A4. Description: Hepatocyte CYP induction assay, CYP3A4 gene expression. Format: in vitro ADME. Conditions: human hepatocytes. Here is the method:
Exemplary compounds were tested for ability to induce CYP3A4 and/or CYP1A2 in hepatocytes. Procedures and results are described below.
Cryopreserved human hepatocytes were purchased from BioIVT (Baltimore, MD, USA), and they were stored in liquid nitrogen before using. The detailed information of hepatocytes is as follows:
Fresh dosing solutions of test compounds, and Rifampicin were prepared in the incubation medium on the day of dosing.
Cryopreserved hepatocytes were thawed and counted to determine yield, viability was measured. Hepatocytes at the concentrations of 0.7 million/mL were transferred to collagen-coated 96-well plates for attachment (0.1 mL viable cells/well). After allowing 4 to 5 hours for attachment of cells, the plating medium was replaced with Incubation Medium containing 2% (v/v) Matrigel™ (sandwich medium) and the hepatocytes were incubated until use.
All incubations were conducted at 37° C., 5% CO2, and saturated humidity.
The sandwich medium was removed and the hepatocytes were treated with incubation solutions containing test articles in vehicle (0.1% DMSO), or positive control for 24 hours after the cultures were established. The incubation solution was aspirated and replaced with incubation solution containing the same concentrations of test articles, vehicle, or positive controls for an additional 24 hours. The total treatment period was 48 hours. Triplicate were used for each concentration of test compound and positive control.
After treatment period of 48 hours, the incubation solution was aspirated. Hepatocytes were washed once with pre-warmed HBSS and incubated with 140 μL of RLT (lysis buffer from Rneasy 96 Kit) supplemented with 1% β-mercaptoethanol. Plates were then stored at ≤−60° C. freezer until RNA analysis.
Before RNA extraction, the frozen plate was thawed and cell lysates were transferred to 96-well plates. RNA isolation was performed using QIAcube HT System. RNA concentration was measured with NanoDrop ND-2000 spectrophotometer. The purity of RNA preparation was calculated by the ratio of the OD260 nm/OD280 nm and the acceptable range is between 1.8 and 2.2. Reverse transcription was performed to obtain cDNA. Quantification of the selective genes by real time quantitative Polymerase Chain Reaction (qPCR) was performed with TaqMan universal PCR Master Mix on the BIO-RAD CFX 384 Touch Real Time PCR System. The following setting were used: 50° C. for 2 minutes, 95° C. for 10 minutes, 40 cycles of 95° C. for 15 seconds and 60° C. for 1 minute. 18S rRNA was used as the internal standard.
To account for variation in RNA yields and reverse transcription polymerase chain reaction (RT-PCR), the gene of interest in all samples was normalized to an internal control gene (18S ribosomal RNA) (Cttarget gene−Ct18S=ΔCt).
The relative quantitation or change in mRNA level of selected genes induced by each test compound was expressed in relation to the vehicle control sample (Δctcompound−ΔCtvehicle=ΔΔCt). Fold changes in gene expression were determined by taking 2 to the power of this value (2^−ΔΔt).
% of positive control [(fold change in treated sample)−1]/[(fold change in positive control)−1]×100

As a reminder, the IC50 is the point on the concentration scale where inhibition reaches its midpoint. Turning to `Cc1ccc(-c2noc(C(C)NS(C)(=O)=O)n2)cc1NC(=O)c1cnc2ccccn12` (single isomer, unassigned) [Compound I-238], in data set [1], the IC50 is 50 to 500 nM.
In the case of `Cc1ccc(-c2noc([C@H](C)O)n2)cc1NC(=O)c1cnc2ccccn12` [Compound I-271], the IC50 in data set [1] was no more than 50 nM. Further, in the data set on CYP3A4 (donor four), the “CYP 3A4 induction mRNA: Mean fold at 10 μM” value was “+ (induction fold of less than or equal to 2-fold)”.
On to `Cc1ccc(-c2noc(C3CCN3)n2)cc1NC(=O)c1cnc2ccccn12` (racemic) [Compound I-394], for which the “CYP 3A4 induction mRNA: Mean fold at 10 μM” value with CYP3A4 (donor five), in the data set on CYP3A4 (donor four) and in the data set on CYP3A4 (donor three) was “+ (induction fold of less than or equal to 2-fold)” each time.
As to `COc1ccn2c(C(=O)Nc3cc(-c4noc(C[C@H](C)O)n4)ccc3C)cnc2c1` [Compound I-94], the IC50 in data set [1] is no more than 50 nM.
Same read-out and setting: the value for `Cc1ccc(-c2noc(C3CC(F)C3)n2)cc1NC(=O)c1cnc2ccccn12` (stereo not drawn) [Compound I-381] was no more than 50 nM.
Still for that read-out and setting: the value for `Cc1ccc(-c2cnc(N3CC(F)(F)C3)o2)cc1NC(=O)c1cnc2ccccn12` [Compound I-213] was 50 to 500 nM.
On the same count and under the same terms, the value for `COC(=O)N1CC(c2nc(-c3ccc(C)c(NC(=O)c4cnc5cc(O[C@@H](C)CO)ccn45)c3)no2)C1` (single isomer, unassigned) [Compound I-217] was 50 to 500 nM.
As to `COCCOCc1ccn2c(C(=O)Nc3cc(-c4noc([C@H]5C[C@@H]5F)n4)ccc3C)cnc2c1` [Compound I-84], in data set [1], the IC50 was no more than 50 nM. In the data set on CYP3A4 (donor four), the “CYP 3A4 induction mRNA: Mean fold at 10 μM” value is reported as “+ (induction fold of less than or equal to 2-fold)”.
Consider `Cc1ccc(-c2noc([C@H]3C[C@@H]3F)n2)cc1NC(=O)c1cnc2ccc(F)cn12` [Compound I-288], for which the IC50 in data set [1] was in the range of 50 to 500 nM. For the same compound, in the data set with CYP3A4 (donor two), the “CYP 3A4 induction mRNA: Mean fold at 10 μM” value is “++++ (induction fold of greater than 10-fold)”.
On to `Cc1ccc(-c2noc([C@H]3CCC(=O)N3)n2)cc1NC(=O)c1cnc2ccccn12` (racemic) [Compound I-327], for which the “CYP 3A4 induction mRNA: Mean fold at 10 μM” value in the data set on CYP3A4 (donor five), in the data set on CYP3A4 (donor four) and in the data set on CYP3A4 (donor three) was “+ (induction fold of less than or equal to 2-fold)” throughout.
Regarding `Cc1ccc(-c2noc(CC(C)O)n2)cc1NC(=O)c1cnc2ccccn12` (racemic) [Compound I-363], the “CYP 3A4 induction mRNA: Mean fold at 10 μM” value with CYP3A4 (donor five), in the data set with CYP3A4 (donor four) and with CYP3A4 (donor three) was “+ (induction fold of less than or equal to 2-fold)” throughout.
Turning to `CCCS(=O)(=O)N1CC(c2nc(-c3ccc(Cl)c(NC(=O)c4cnc5ccccn45)c3)no2)C1` [Compound I-220], the IC50 in data set [1] is 50 to 500 nM. Also, the “CYP 3A4 induction mRNA: Mean fold at 10 μM” value in the data set on CYP3A4 (donor four) was “+++ (induction fold of greater than 3-fold to less than or equal to 10-fold)”.
For the compound `COc1ccn2c(C(=O)Nc3cc(-c4noc(CC5CC(F)(F)C5)n4)ccc3C)cnc2c1` [Compound I-91], the IC50 in data set [1] was no more than 50 nM.
Still for that read-out and setting: next, `COCCS(=O)(=O)N1CC(c2nc(-c3ccc(C)c(NC(=O)c4cnc5ccccn45)c3)no2)C1` [Compound I-235]: 50 to 500 nM; `Cc1nc(-c2ccc(Cl)c(NC(=O)c3cnc4ccccn34)c2)no1` [Compound I-172]: 500 to 5000 nM.
On the same count and under the same terms, the value for `COC(=O)N1CC(c2nc(-c3ccc(C)c(NC(=O)c4cnc5cc(OC[C@@H](C)O)ccn45)c3)no2)C1` [Compound I-263] was no more than 50 nM.
The same measure, in the same setting: the value for `Cc1ccc(-c2noc(CO)n2)cc1NC(=O)c1cnc2ccccn12` [Compound I-337] was no more than 50 nM.
With `Cc1ccc(-c2noc([C@H]3C[C@@H]3F)n2)cc1NC(=O)c1cnc2cc(OC(F)(F)F)ccn12` [Compound I-87], in data set [1], the IC50 was no more than 50 nM. Also, the “CYP 3A4 induction mRNA: Mean fold at 10 μM” value with CYP3A4 (donor four) is on record as “+ (induction fold of less than or equal to 2-fold)”.
The like results for `COc1ccc2ncc(C(=O)Nc3cc(-c4noc(C[C@@H](C)O)n4)ccc3C)n2c1` [Compound I-119] were, in that order, no more than 50 nM and “+ (induction fold of less than or equal to 2-fold)”.
With `COC(=O)N1CC(c2nc(-c3ccc(Cl)c(NC(=O)c4cnc5ccccn45)c3)no2)C1` [Compound I-339], the IC50 in data set [1] was no more than 50 nM.
Still for that read-out and setting: the value for `Cc1ccc(-c2noc(C3CCC3F)n2)cc1NC(=O)c1cnc2ccccn12` (racemic) [Compound I-376] was no more than 50 nM; that for `Cc1ccc(-c2noc(CC3CC(F)(F)C3)n2)cc1NC(=O)c1cnc2ccccn12` [Compound I-124] was no more than 50 nM.
On the same count and under the same terms, the value for `O=C(Nc1cc(-c2noc([C@H]3C[C@@H]3F)n2)ccc1Cl)c1cnc2ccccn12` [Compound I-341] was 50 to 500 nM.
On the same count and under the same terms, next, `COC(=O)N1CC(c2nc(-c3ccc(C)c(NC(=O)c4cnn5ccc(Br)cc45)c3)no2)C1` [Compound I-280]: no more than 50 nM.
`Cc1ccc(-c2noc(C3CCC3F)n2)cc1NC(=O)c1cnc2ccccn12` (racemic) [Compound I-377]: the IC50 in data set [1] was no more than 50 nM.
Still for that read-out and setting: the value for `Cc1nc(-c2ccc(C)c(NC(=O)c3cnc4ccccn34)c2)no1` [Compound I-360] was no more than 50 nM.
Same read-out and setting: next, `Cc1ccc(-c2noc(C3CC4(CCC4)C3)n2)cc1NC(=O)c1cnc2ccccn12` [Compound I-367]: no more than 50 nM; `CCOc1ccn2c(C(=O)Nc3cc(-c4noc([C@H]5C[C@@H]5F)n4)ccc3C)cnc2c1` [Compound I-93]: no more than 50 nM.
On the same count and under the same terms, next, `Cc1ccc(-c2noc(CC(O)C(F)F)n2)cc1NC(=O)c1cnc2ccccn12` (stereo not drawn) [Compound I-122]: no more than 50 nM; `Cc1nc(-c2ccc(C)c(NC(=O)c3cnc4ccc(N(C)C)cn34)c2)no1` [Compound I-205]: no more than 50 nM; `Cc1ccc(-c2noc(C3CCC(F)C3)n2)cc1NC(=O)c1cnc2ccccn12` (racemic) [Compound I-319]: no more than 50 nM.
In the case of `COC(=O)N1CC(c2nc(-c3ccc(C)c(NC(=O)c4cnn5cc(C#N)ccc45)c3)no2)C1` [Compound I-204], the IC50 in data set [1] lay in the range of 50 to 500 nM.
As to `Cc1ccc(-c2noc(C(C)NS(C)(=O)=O)n2)cc1NC(=O)c1cnc2ccccn12` (single isomer, unassigned) [Compound I-237], the IC50 in data set [1] lay in the range of 50 to 500 nM.
On the same count and under the same terms, the value for `COC(=O)N1CC(c2nc(-c3ccc(C)c(NC(=O)c4cnc5cc(OC[C@H](C)O)ccn45)c3)no2)C1` [Compound I-262] was no more than 50 nM; that for `Cc1nc(-c2ccc(C)c(NC(=O)c3cnc4cc(C(F)F)ccn34)c2)no1` [Compound I-134] was 500 to 5000 nM.
Still for that read-out and setting: the value for `Cc1ccc(-c2noc(CCO)n2)cc1NC(=O)c1cnc2ccccn12` [Compound I-306] was no more than 50 nM; that for `Cc1ccc(-c2noc([C@H]3C[C@@H]3F)n2)cc1NC(=O)c1cnn2ccccc12` [Compound I-109] was no more than 50 nM; that for `COc1ccn2c(C(=O)Nc3cc(-c4noc(CC(O)C(F)F)n4)ccc3C)cnc2c1` (single isomer, unassigned) [Compound I-76] was no more than 50 nM.
The same measure, in the same setting: the value for `Cc1ccc(-c2noc(CC3CC3(F)F)n2)cc1NC(=O)c1cnc2ccccn12` (stereo not drawn) [Compound I-125] was no more than 50 nM; that for `Cc1ccc(-c2noc(CC(C)(C)O)n2)cc1NC(=O)c1cnc2ccccn12` [Compound I-336] was no more than 50 nM; that for `COc1ccn2c(C(=O)Nc3cc(-c4noc(C5CC(F)(F)C5)n4)ccc3C)cnc2c1` [Compound I-96] was no more than 50 nM.
As to `Cc1ccc(-c2noc(C3CC(C)(F)C3)n2)cc1NC(=O)c1cnc2ccccn12` (stereo not drawn) [Compound I-387], in data set [1], the IC50 is no more than 50 nM.
